Test results: US12440476B2, “Agents that target telomerase reverse transcriptase (TERT) for treating cancer and sensitizing cancer cells to genotoxic therapy” (Northwestern University, priority 2022, dated 2025)

Assays:
CT26 cells [1] = test: Senescence-associated beta-galactosidase (SA-β-Gal) assay; assay type: cell-based, mouse; settings: non-toxic doses, 10 Gy, 5 days
Protocol: (§1) MCF7, Saos-2, or CT26 cells were seeded at 3×10^4 per well in 6-well plates and allowed to attach to plate overnight. For TERT inhibition, MCF7 cells were treated with DMSO vehicle, NU-2 (0.5 μM), NU-1 (0.5 μM), chrolactomycin (0.5 μM), BIBR 1532 (10 μM), or MST-312 (1 μM) for 1 h prior to IR, Saos-2 cells were treated with DMSO vehicle, NU-2 (1 μM), NU-1 (1 μM), chrolactomycin (1 μM), BIBR 1532 (20 μM), or MST-312 (1 μM) for 1 h prior to IR, and CT26 cells were treated with MSO vehicle, NU-2 (1 μM), NU-1 (1 μM), chrolactomycin (1 μM), BIBR 1532 (20 μM), or MST-312 (2 μM) for 1 h prior to IR. Then MCF7 and Saos-2 cells were irradiated with 0 or 6 Gy and CT26 cells with 0 or 10 Gy. After IR, MCF7 and Saos-2 cells were continuously cultured for 7 days and CT26 for 5 days, then fixed in 2% PFA and stained with staining buffer (1 mg/ml X-Gal (Golden Bio), 40 mM citric acid/sodium phosphate, 150 mM NaCl, 2 mM MgCl2, 3.3 mM K3[Fe(CN)6], 3.3 mM K4[Fe(CN)6], pH=6) for 16 h at 37° C., then washed with warm PBS three times and imaged in PBS within a week. Images were captured on a Zeiss Axiovert 200M microscope with a 20× Plan-NeoFluar objective and Axiocam digital camera. SA-β-Gal-positive and -negative cells were counted in more than 5 fields, yielding an average percentage indicated on each SA-β-Gal image as mean±SD. Three replicates were performed.
To examine the roles for STING, CT26 cells were seeded at 2×10^4 per well in 12-well plates and allowed to attach overnight. STING inhibitor C178 (0 or 4 μM) was added, followed by the addition of DMSO vehicle, NU-1 (1 μM), MST-312 (2 μM) or chrolactomycin (1 μM) for 1 h prior to 0 or 10 Gy. CT26 cells were cultured for 5 days, surviving cells were washed twice in PBS and cultured in fresh immune cell culture medium overnight. The CT26 cells were then cocultured with BMDCs for 12-16 h at a 1:2 ratio, and BMDCs were collected and analyzed after coculturing, as described above.

Saos-2 cells = test: Clonogenic survival after irradiation (radiosensitivity); assay type: cell-based, human; settings: NU-1 1 μM
Protocol: (§2) To assess radiosensitivity, MCF7, Saos-2, or CT26 cells were seeded in 6-well plates at 100 cells per well in triplicate, allowed to attach overnight and treated with DMSO or TERT inhibitors at subtoxic concentrations for 1 h prior to IR. MCF7 cells were treated with 0.5 μM NU-1, 10 μM BIBR 1532, or 1 μM MST-312, Saos-2 cells with 1 μM NU-1 or 20 μM BIBR 1532 and CT26 cells with 1 μM NU-1, 20 μM BIBR 1532 or 2 μM MST-312. Doses of 0, 1, 2, 3, 4, or 5 Gy were applied using a GammaCell ^60Co γ-ray source (Nordion) at a dose rate of 7.09 cGy/sec. After that MCF7 and Saos-2 cells were cultured for 3 weeks and CT26 for 2 weeks, then fixed and stained with crystal violet. Colonies of at least 50 cells were counted. Data from three independent biological replicates were acquired. The surviving fraction (SF) was calculated using the following formula: […]

MCF7 cells [2] = test: as above; assay type: cell-based, human; settings: MCF7 cells; NU-1 0.5 μM, BIBR 1532 10 μM, MST-312 1 μM for 1 h prior to IR; 2 Gy
Protocol: as §2

CT26 cells [3] = test: as above; assay type: cell-based, mouse; settings: for Sensitization of CT26 cells to radiation: non-toxic doses; for Mean SF2 (surviving fraction at 2 Gy): CT26 cells, NU-1 1 μM, BIBR 1532 20 μM, MST-312 2 μM for 1 h prior to IR
Protocol: as §2

CT26 cells [4] = test: Clonogenicity assay (inhibitor alone); assay type: cell-based, mouse; settings: 1 μM NU-1, 2 μM MST, 20 μM BIBR
Protocol: MCF7, Saos-2, or CT26 cells were seeded in 6-well plates at 100 cells per well in triplicate and allowed to attach overnight. MCF7 or CT26 cells were then treated with DMSO vehicle or TERT inhibitors in final concentration of 0.25, 0.5, 0.75, 1, 2 μM for NU-1, 2.5, 5, 7.5, 10, 20 μM for BIBR 1532, or 1, 2, 3, 4, 5 μM for MST-312. Saos-2 cells were treated with DMSO vehicle or TERT inhibitors in final concentration of 0.25, 0.5, 0.75, 1, 2 μM for NU-1 or 2.5, 5, 10, 20, 40 μM for BIBR 1532. The final volume of cell culture medium was 3 mL per well. MCF7 and Saos-2 cells were continuously cultured for 3 weeks and CT26 for 2 weeks in the presence of TERT inhibitors, fixed in methanol for 5 min, then stained with 0.5% crystal violet for 10 min at room temperature. After washing with water, the plates were dried at room temperature and imaged with an iBright Imaging System (Thermo Fisher Scientific).

MCF7 cells [5] = test: Senescence-associated beta-galactosidase (SA-β-Gal) assay; assay type: cell-based, human
Protocol: as §1, with “For TERT inhibition, MCF7 cells were treated with DMSO vehicle, NU-2 (0.5 μM), NU-1 (0.5 μM), chrolactomycin (0.5 μM), BIBR 1532 (10 μM), or MST-312 (1 μM) for 1 h prior to IR, Saos-2 cells were treated with DMSO vehicle, NU-2 (1 μM), NU-1 (1 μM), chrolactomycin (1 μM), BIBR 1532 (20 μM), or MST-312 (1 μM) for 1 h prior to IR, and CT26 cells were treated with MSO vehicle, NU-2 (1 μM), NU-1 (1 μM), chrolactomycin (1 μM), BIBR 1532 (20 μM), or MST-312 (2 μM) for 1 h prior to IR.” left out

MCF7-FUCCI cells = test: Time-lapse live-cell analysis of cell cycle; assay type: cell-based, human; settings: 0.5 μM for 1 h, then 6 Gy, 6 days
Protocol: MCF7-FUCCI cells were seeded at 3×10^4 per well in 6-well plates, allowed to attach overnight, then treated with 0.5 μM NU-2 control, NU-1 or chrolactomycin for 1 h, followed by 6 Gy. Then, live-cell imaging was conducted using the IncuCyteS3. Phase contrast along with green and red channels were acquired at 20× magnification with scanning every 2 h for 6 days. 16 non-overlapping fields were captured for each well. Representative consecutive images were used to create the movies using Fiji (Schindelin et al., 2012).

CD8+ T cells = test: In vitro T cell priming assay (CFSE dilution); assay type: cell-based, mouse; settings: DCs stimulated by inhibitor treated and irradiated (10 Gy) CT26 cells; 5 days; NU-1 1 μM, MST 2 μM
Protocol: To evaluate effects of TERT on tumor immunogenicity, CT26 cells were seeded at […] per well in 12-well plates, allowed to attach overnight, and then treated with DMSO, NU-1 (1 μM), or MST-312 (2 μM) for 1 h, followed by 0 or 10 Gy. 5 days after IR, the media were removed, cells washed with PBS, and fresh immune cell culture medium added. CT26 cells were then cultured overnight, followed by coculturing with immature BMDCs for 12-16 h at a 1:2 ratio. After coculture, the suspension BMDCs were collected into round bottom FACS tubes, washed with PBS, and stained with Zombie yellow (1:1000, BioLegend) for 10 min at room temperature. […] After PBS washing, cells were resuspended in 300 μL Cell Staining Buffer and analyzed using a BD Fortessa 4-15 HTS Flow cytometer within 2 hours. Data were then analyzed by FlowJo software. […]
Splenocytes isolated from CT26 immunized mice were stained with 0.5 μM carboxyfluorescein succinimidyl ester (CFSE) (Thermo Fisher Scientific, Cat #C34554) for 10 min at room temperature (Quah et al., 2007). […] Cells were analyzed using a BD Fortessa 4-15 HTS flow cytometer and FlowJo software. […]

| SMILES | Senescence induction by IR (CT26 cells [1]) | Radiosensitization in clonogenic survival assay (Saos-2 cells; Saos-2 (telomerase negative), BIBR 20 μM) | Mean SF2 (surviving fraction at 2 Gy) (Saos-2 cells; Saos-2 cells, BIBR 1532 20 μM for 1 h prior to IR, 2 Gy) | Mean SF2 (surviving fraction at 2 Gy) (MCF7 cells [2]) | Sensitization of CT26 cells to radiation (CT26 cells [3]) | Mean SF2 (surviving fraction at 2 Gy) (CT26 cells [3]) | Tolerance in clonogenic assay (inhibitor alone) (CT26 cells [4]) | Enhancement of senescence after IR at low concentration (MCF7 cells [5]; 50 nM, 7 days after IR) | Surviving cells arrested with G1 marker expression and senescent morphology (MCF7-FUCCI cells) [%] | Proliferating CD8+ T cells (CD8+ T cells) [%] | SA-β-Gal+ cells (MCF7 cells [5]; 7 days after IR (6 Gy)) [%] |
| --- | --- | --- | --- | --- | --- | --- | --- | --- | --- | --- | --- |
| C/C(=C\C(=O)Nc1ccccc1C(=O)O)c1ccc2ccccc2c1 [BIBR 1532] | had no similar effects | Neither NU-1 nor BIBR displayed radiosensitization | 0.580 | 0.256 | had no similar effects | 0.727 | non-toxic | – | – | – | – |
| C=C1C(=O)[C@]2(OC)C(=O)O[C@@]34C[C@H](C)C(C(=O)O)=C[C@@H]3CCC[C@@H](C)C[C@@H](C)[C@H]1O[C@H]24 [CHRO, chrolactomycin, reference compound] | – | – | – | – | – | – | – | sufficient to enhance senescence after IR | ~80 | – | – |
| O=C(Nc1cccc(NC(=O)c2cccc(O)c2O)c1)c1cccc(O)c1O [MST-312] | enhanced senescence induction by IR | – | – | 0.245 | sensitized CT26 cells to radiation | 0.407 | tolerated | – | – | 30.4 | – |
| COC(=O)[C@@]1(C)C(=O)C[C@@H](C)O[C@H]1CCc1cn(Cc2ccc(F)cc2F)nn1 [NU-2] | – | – | – | – | – | – | – | – | ~40 | – | ~34 |
